How the values were obtained:
[1] = target: Human recombinant adenosine A2A receptor (Homo sapiens, UniProt P29274); test: Human adenosine A2A receptor binding assay with [3H] CGS-21680 (Example 4.2); conditions: for activity as dual antagonists of both A2A and A1 receptors (in words): summary of Table 5, binding assays of Examples 4.1 and 4.2
Experimental: Test compound is weighed, dissolved in DMSO to make a stock solution of 10 mM, diluted with DMSO to prepare working solutions, then 100-fold diluted to the indicated concentrations. Human recombinant adenosine A2A receptors expressed in HEK-293 cells were used to prepare membranes in incubation buffer (50 mM Tris-HCl, pH 7.4, 10 mM MgCl2, 1 mM EDTA, 2 U/ml Adenosine Deaminase). Test compound or vehicle (2.2 μL) was added in 200 μL of membranes and incubated with 20 μL of 50 nM [^3H] […] Non-specific binding was estimated in the presence of 50 μM NECA (5′-N-ethylcarboxamidoadenosine). The incubation was stopped by vacuum filtration onto 0.3% PEI (polyethylenimine) presoaked GF/B filters using a harvester followed by four washes with ice-cold 50 mM Tris-HCl, pH 7.4, and the radioactivity on GF/B filtermats counted in a scintillation counter (PerkinElmer Topcount™) to determine [^3H] […] Final concentration of vehicle DMSO is 1%.

[2] = target: T1, Human recombinant adenosine A1 receptors (Homo sapiens, UniProt P30542); test: Human adenosine A1 receptor binding assay with [3H] DPCPX (pyrazolo-pyrimidine compounds, Example 4.1); conditions: membranes of CHO-K1 cells, read-out: hA1 Ki
T1 construct: expressed in transfected cells; host or cells: CHO-K1, membrane preparation
T1 sequence (P30542 1-326): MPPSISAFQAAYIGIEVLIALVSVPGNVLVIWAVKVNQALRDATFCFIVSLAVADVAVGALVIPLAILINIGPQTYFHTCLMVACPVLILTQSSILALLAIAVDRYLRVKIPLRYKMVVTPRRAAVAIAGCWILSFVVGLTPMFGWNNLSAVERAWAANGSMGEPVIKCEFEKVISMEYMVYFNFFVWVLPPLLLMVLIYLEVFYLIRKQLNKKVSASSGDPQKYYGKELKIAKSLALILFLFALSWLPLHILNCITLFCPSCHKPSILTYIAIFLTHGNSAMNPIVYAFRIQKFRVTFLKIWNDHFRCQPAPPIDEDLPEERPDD
Experimental: Test compound is weighed, dissolved in DMSO to make a stock solution of 10 mM, diluted with DMSO to prepare working solutions, then 100-fold diluted to the indicated concentrations. Human recombinant adenosine A1 receptors expressed in CHO-K1 cells were used to prepare membranes in incubation buffer (20 mM HEPES (4-(2-hydroxyethyl)-1-piperazineethanesulfonic acid) pH 7.4, 10 mM MgCl2, 100 mM NaCl). Test compound or vehicle (2.2 μL) was added in 200 μL of membranes and incubated with 20 μL of 1 nM [^3H] DPCPX (8-cyclopentyl-1,3-dipropylxanthine) for 90 minutes at 25° C. Non-specific binding was estimated in the presence of 100 μM R(−)-PIA ((R)—N-(1-methyl-2-phenylethyl)adenosine). The incubation was stopped by vacuum filtration onto 0.3% PEI (polyethylenimine) presoaked GF/B filters using a harvester followed by four washes with ice-cold 50 mM Tris-HCl, pH 7.4, and the radioactivity on GF/B filtermats counted in a scintillation counter (PerkinElmer Topcount™) to determine [^3H] DPCPX specifically bound. Final concentration of vehicle DMSO is 1%.
Data is fitted using the non-linear curve fitting routines in Meth-IQ software (ID Business Solutions Ltd., UK).

Chain of Human recombinant adenosine A2A receptor (P29274 whole entry): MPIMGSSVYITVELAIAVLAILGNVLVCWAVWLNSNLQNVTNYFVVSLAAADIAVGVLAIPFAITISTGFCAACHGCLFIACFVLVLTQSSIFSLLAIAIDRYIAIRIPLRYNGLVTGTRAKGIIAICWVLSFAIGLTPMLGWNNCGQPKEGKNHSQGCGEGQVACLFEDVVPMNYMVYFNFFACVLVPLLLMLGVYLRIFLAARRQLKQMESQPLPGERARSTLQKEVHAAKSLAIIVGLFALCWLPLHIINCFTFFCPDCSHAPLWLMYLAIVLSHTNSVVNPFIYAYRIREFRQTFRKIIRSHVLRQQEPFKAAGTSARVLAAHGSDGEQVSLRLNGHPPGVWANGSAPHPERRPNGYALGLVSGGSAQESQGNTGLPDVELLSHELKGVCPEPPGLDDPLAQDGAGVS

SMILES	Ki [1]	activity as dual antagonists of both A2A and A1 receptors (in words) [1]	Ki [2]
N#Cc1cccc(-c2nc(N)nc3c2cnn3Cc2c(F)cc(N)cc2F)c1F [Compound 208, 3-(6-amino-1-(4-amino-2,6-difluorobenzyl)-1H-pyrazolo[3,4-d]pyrimidin-4-yl)-2-fluorobenzonitrile]	< 20 nM	potent activity as dual antagonists	≤ 100 nM
N#Cc1cccc(-c2nc(N)nc3c2cnn3Cc2ccc(N)c(C(F)(F)F)c2)c1F [Compound 211, 3-(6-amino-1-(4-amino-3-(trifluoromethyl)benzyl)-1H-pyrazolo[3,4-d]pyrimidin-4-yl)-2-fluorobenzonitrile]		potent activity as dual antagonists	
N#Cc1cccc(-c2nc(N)nc3c2cnn3Cc2c(F)cccc2F)c1F [Compound 213, 3-(6-amino-1-(2,6-difluorobenzyl)-1H-pyrazolo[3,4-d]pyrimidin-4-yl)-2-fluorobenzonitrile]		potent activity as dual antagonists	

Source: patent US12606564B2, “Adenosine receptor antagonist compounds” (ILDONG PHARMACEUTICAL CO., LTD., priority 2019, dated 2026)
